Source: ChEMBL document CHEMBL1155606, “Stolonic acids A and B, new cytotoxic cyclic peroxides from an Indian Ocean ascidian Stolonica species” (J Nat Prod, 2000)
Converted amounts (≈) assume the structure as drawn.

What was measured:
[1] = Cytotoxicity against human LOX cells after 48 hrs; format: functional, cell-based
OVCAR-3 = test: Cytotoxicity against human OVCAR-3 cells after 48 hrs; format: functional, cell-based; details: OVCAR-3, 48 h

Row | Compound | IC50 [1] | IC50 (OVCAR-3)
1 | CCCC/C=C/C=C/CCCCCCCC[C@@H]1CC[C@@H]([C@@H]2CC[C@@H](CC(=O)O)OO2)O1 [STOLONIC ACID A] | 0.05 µg/mL (≈ 0.115 µM) | 0.1 µg/mL (≈ 0.229 µM)
2 | CCCC/C=C\C=C/CCCCCCCC[C@@H]1CC[C@@H]([C@@H]2CC[C@@H](CC(=O)O)OO2)O1 [STOLONIC ACID B] | 0.05 µg/mL (≈ 0.115 µM) | 0.1 µg/mL (≈ 0.229 µM)
